Data reported in article PMC6430017, “Structural and chemical insights into the covalent-allosteric inhibition of the protein kinase Akt” (Chemical Science, 2019).
Like-named read-outs stand apart in the source and are kept apart here.

Assays:
Test in all cases: SelectScreen Z'LYTE kinase profiling
Format in all cases: biochemical
[1] = target: AKT2 (PKB beta) (Homo sapiens, UniProt P31751)
[2] = target: RPS6KA2 (RSK3) (Homo sapiens, UniProt Q15349); details: ATP at apparent KM
Protocol: (§1) protein kinases at a compound concentration of 1 µM. Measurements were performed in duplicates
(§2) and at the particular apparent ATP KM of each individual kinase employing the activity based Z’LYTE®
(§3) kinase assay of the SelectScreen® Kinase Profiling Services (ThermoFisher Scientific).
(§4) kinases at a compound concentration of 1 µM. Measurements were performed in duplicates and at
(§5) the particular apparent ATP KM of each individual kinase employing the activity based Z’LYTE® kinase
(§6) assay of the SelectScreen® Kinase Profiling Services (ThermoFisher Scientific).

[3] = target: RPS6KA3 (RSK2) (Homo sapiens, UniProt P51812); details: ATP at apparent KM
RPS6KA3 (RSK2), sequence (P51812 whole entry): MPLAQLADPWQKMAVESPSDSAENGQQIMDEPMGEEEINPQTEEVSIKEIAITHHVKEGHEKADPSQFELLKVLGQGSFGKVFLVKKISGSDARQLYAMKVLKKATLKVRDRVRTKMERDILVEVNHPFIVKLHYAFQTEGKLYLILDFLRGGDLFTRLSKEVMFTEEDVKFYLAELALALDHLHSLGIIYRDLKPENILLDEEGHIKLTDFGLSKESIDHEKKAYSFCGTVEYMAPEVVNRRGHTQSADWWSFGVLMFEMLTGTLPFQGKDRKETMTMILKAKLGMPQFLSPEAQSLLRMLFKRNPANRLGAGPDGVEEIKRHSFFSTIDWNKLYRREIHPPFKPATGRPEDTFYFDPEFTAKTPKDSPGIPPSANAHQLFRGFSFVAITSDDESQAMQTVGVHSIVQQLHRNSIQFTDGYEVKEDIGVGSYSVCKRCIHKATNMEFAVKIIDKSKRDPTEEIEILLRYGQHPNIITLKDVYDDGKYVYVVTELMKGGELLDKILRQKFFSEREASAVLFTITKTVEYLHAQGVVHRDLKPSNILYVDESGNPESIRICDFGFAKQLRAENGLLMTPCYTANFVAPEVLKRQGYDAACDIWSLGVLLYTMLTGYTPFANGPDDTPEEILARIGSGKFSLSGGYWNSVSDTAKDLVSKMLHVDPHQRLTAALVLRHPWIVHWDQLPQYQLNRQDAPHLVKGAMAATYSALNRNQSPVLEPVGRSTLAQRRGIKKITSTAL
Protocol: as §1, §2, §3, §4, §5, §6

[4] = target: BTK (Homo sapiens, UniProt Q06187); details: ATP at apparent KM
BTK, sequence (Q06187 whole entry): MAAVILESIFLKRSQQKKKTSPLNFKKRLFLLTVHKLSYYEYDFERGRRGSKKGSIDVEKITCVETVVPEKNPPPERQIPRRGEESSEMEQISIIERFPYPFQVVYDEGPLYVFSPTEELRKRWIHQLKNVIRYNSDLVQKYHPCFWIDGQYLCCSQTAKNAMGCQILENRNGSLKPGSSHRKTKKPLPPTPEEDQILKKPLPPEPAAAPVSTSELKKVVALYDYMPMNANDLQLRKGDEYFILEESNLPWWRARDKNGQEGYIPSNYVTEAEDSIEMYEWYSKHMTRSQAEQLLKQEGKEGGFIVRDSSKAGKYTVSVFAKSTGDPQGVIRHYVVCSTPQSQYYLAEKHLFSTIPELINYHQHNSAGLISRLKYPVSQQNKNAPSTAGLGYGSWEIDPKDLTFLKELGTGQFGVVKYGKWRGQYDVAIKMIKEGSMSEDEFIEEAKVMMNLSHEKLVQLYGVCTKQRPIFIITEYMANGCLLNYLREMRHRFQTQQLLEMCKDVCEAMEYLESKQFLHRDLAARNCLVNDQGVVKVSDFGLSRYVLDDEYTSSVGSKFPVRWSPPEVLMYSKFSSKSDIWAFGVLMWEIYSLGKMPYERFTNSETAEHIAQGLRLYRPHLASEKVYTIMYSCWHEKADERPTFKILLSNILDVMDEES
Protocol: as §1, §2, §3, §4, §5, §6

[5] = target: CAMK1D (CaMKI delta) (Homo sapiens, UniProt Q8IU85); details: ATP at apparent KM
Protocol: as §1, §2, §3, §4, §5, §6

[6] = target: ROCK2 (Homo sapiens, UniProt O75116); details: ATP at apparent KM
Protocol: as §1, §2, §3, §4, §5, §6

[7] = target: RPS6KA5 (MSK1) (Homo sapiens, UniProt O75582); details: ATP at apparent KM
Protocol: as §1, §2, §3, §4, §5, §6

[8] = target: PRKCQ (PKC theta) (Homo sapiens, UniProt Q04759); details: ATP at apparent KM
Protocol: as §1, §2, §3, §4, §5, §6

[9] = target: T1, AURKA (Aurora A) (Homo sapiens, UniProt O14965); details: ATP at apparent KM
T1 sequence (O14965 1-403): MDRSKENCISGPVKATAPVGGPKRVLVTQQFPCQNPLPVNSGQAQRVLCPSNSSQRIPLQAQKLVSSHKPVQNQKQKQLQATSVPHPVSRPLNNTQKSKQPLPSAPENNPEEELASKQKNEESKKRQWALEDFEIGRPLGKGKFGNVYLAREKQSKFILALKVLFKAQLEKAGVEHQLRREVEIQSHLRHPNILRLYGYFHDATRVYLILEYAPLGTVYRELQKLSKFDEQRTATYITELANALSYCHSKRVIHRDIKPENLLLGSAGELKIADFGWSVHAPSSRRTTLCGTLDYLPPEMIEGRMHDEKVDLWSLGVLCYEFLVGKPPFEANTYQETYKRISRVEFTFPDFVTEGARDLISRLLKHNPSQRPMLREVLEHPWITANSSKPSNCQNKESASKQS
Protocol: as §1, §2, §3, §4, §5, §6

[10] = target: PLK1 (Homo sapiens, UniProt P53350); details: ATP at apparent KM
PLK1, sequence (P53350 whole entry): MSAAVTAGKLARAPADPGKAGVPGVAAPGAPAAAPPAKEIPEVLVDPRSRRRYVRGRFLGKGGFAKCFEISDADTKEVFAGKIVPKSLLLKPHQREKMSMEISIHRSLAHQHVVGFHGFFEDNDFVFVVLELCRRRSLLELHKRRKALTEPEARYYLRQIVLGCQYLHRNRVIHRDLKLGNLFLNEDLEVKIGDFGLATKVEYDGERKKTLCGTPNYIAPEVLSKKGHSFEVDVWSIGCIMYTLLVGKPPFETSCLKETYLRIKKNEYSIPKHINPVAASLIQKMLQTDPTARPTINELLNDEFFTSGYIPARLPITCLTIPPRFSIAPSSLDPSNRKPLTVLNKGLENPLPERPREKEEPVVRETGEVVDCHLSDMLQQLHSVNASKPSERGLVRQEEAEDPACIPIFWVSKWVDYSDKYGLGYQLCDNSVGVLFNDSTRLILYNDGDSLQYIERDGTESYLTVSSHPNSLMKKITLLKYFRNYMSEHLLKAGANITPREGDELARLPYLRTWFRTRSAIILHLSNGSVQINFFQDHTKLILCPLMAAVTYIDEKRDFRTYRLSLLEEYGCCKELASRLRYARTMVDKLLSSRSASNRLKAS

[11] = target: PASK (Homo sapiens, UniProt Q96RG2); details: ATP at apparent KM
Protocol: as §1, §2, §3, §4, §5, §6

[12] = target: MAPK14 (p38 alpha) Direct (Homo sapiens, UniProt Q16539); details: ATP at apparent KM
MAPK14 (p38 alpha) Direct, sequence (Q16539 whole entry): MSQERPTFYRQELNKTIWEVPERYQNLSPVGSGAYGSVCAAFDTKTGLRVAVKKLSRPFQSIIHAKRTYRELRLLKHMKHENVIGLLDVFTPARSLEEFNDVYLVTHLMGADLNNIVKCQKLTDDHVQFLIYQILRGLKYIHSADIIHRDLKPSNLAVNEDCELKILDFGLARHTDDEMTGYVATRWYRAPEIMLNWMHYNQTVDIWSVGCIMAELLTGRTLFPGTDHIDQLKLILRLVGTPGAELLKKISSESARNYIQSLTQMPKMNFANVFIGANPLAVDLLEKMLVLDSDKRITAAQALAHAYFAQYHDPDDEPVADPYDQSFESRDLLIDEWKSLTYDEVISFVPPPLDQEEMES
Protocol: as §1, §2, §3, §4, §5, §6

[13] = target: MAPK3 (ERK1) (Homo sapiens, UniProt P27361); details: ATP at apparent KM
MAPK3 (ERK1), sequence (P27361 whole entry): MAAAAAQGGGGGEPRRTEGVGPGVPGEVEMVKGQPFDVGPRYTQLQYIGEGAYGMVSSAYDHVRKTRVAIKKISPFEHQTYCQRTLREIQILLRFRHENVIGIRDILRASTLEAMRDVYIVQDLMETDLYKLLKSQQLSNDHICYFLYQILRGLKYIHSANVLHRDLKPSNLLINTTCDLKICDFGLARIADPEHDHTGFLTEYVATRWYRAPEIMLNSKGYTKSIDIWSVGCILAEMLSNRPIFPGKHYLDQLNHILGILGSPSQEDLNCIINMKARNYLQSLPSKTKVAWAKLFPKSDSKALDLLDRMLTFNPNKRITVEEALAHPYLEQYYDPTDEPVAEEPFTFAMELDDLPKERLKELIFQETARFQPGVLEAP
Protocol: as §1, §2, §3, §4, §5, §6

[14] = target: PRKCD (PKC delta) (Homo sapiens, UniProt Q05655); details: ATP at apparent KM
Protocol: as §1, §2, §3, §4, §5, §6

[15] = target: ERBB2 (HER2) (Homo sapiens, UniProt P04626); details: ATP at apparent KM
Protocol: as §1, §2, §3, §4, §5, §6

[16] = target: T2, SGK2 (Homo sapiens, UniProt Q9HBY8); details: ATP at apparent KM
T2 sequence (Q9HBY8 1-367): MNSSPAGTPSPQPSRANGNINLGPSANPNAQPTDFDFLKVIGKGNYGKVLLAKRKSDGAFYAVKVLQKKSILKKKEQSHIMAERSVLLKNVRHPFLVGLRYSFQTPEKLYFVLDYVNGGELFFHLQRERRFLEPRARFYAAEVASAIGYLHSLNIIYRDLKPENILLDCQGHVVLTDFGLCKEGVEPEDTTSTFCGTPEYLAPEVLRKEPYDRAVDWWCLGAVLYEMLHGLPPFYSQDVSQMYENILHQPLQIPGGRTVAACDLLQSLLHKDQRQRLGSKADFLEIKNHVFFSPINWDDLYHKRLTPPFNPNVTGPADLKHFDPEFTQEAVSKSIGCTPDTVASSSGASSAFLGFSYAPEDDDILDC
Protocol: as §1, §2, §3, §4, §5, §6

[17] = target: T3, PRKX (Homo sapiens, UniProt P51817); details: ATP at apparent KM
T3 sequence (P51817 1-358): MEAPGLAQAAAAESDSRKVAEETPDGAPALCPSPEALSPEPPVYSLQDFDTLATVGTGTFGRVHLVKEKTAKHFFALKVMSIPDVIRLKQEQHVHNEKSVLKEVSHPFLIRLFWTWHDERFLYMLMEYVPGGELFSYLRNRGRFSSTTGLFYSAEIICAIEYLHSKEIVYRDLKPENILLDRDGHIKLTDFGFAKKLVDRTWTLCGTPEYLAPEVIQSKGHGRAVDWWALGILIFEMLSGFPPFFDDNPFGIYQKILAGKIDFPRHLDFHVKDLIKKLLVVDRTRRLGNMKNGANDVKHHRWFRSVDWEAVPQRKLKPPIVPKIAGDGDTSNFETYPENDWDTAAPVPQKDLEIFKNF
Protocol: as §1, §2, §3, §4, §5, §6

[18] = target: MARK3 (Homo sapiens, UniProt P27448); details: ATP at apparent KM
Protocol: as §1, §2, §3, §4, §5, §6

[19] = target: ALK (Homo sapiens, UniProt Q9UM73); details: ATP at apparent KM
ALK, sequence (Q9UM73 19-1620): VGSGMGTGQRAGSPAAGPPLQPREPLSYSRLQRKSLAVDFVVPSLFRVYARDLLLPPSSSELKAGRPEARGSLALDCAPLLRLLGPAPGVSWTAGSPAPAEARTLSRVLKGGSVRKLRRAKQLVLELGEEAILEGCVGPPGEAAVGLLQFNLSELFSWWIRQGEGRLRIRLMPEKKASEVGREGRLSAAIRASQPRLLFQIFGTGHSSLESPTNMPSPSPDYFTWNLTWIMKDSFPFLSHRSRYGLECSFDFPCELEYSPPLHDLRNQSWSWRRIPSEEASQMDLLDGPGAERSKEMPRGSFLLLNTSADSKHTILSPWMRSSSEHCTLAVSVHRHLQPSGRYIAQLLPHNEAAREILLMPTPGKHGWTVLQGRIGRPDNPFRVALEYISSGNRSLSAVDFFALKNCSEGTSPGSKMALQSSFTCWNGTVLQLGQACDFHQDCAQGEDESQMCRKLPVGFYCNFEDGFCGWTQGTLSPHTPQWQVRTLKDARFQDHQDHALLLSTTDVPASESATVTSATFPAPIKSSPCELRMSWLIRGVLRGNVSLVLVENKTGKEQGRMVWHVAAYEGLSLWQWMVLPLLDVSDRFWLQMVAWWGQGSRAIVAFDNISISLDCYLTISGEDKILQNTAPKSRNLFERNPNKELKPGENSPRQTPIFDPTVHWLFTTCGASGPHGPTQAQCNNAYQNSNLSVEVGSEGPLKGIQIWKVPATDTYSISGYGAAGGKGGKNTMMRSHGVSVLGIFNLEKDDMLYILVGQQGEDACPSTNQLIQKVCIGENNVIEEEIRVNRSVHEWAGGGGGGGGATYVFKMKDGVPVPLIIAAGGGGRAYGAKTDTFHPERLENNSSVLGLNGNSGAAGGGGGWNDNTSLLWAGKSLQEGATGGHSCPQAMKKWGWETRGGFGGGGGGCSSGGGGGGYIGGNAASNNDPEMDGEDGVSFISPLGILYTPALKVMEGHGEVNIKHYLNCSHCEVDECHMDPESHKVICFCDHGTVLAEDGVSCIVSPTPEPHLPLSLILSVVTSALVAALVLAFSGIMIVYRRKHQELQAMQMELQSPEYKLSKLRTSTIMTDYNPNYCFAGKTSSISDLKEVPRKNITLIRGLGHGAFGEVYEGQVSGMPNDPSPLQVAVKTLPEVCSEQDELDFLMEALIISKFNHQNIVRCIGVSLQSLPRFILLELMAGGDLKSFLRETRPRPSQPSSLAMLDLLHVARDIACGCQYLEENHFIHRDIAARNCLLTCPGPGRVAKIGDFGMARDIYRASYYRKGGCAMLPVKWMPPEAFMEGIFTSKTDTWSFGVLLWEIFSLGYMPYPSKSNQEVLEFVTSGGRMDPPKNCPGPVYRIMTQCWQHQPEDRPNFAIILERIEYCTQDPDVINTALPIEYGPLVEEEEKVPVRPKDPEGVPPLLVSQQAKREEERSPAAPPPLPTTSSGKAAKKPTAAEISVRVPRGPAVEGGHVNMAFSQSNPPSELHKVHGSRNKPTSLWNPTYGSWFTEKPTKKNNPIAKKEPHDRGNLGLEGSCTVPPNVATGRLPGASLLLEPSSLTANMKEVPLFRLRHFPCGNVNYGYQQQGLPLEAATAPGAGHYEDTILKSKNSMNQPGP
Protocol: as §1, §2, §3, §4, §5, §6

[20] = target: PRKCB2 (PKC beta II) (Homo sapiens, UniProt P05771); details: ATP at apparent KM
Protocol: as §1, §2, §3, §4, §5, §6

[21] = target: T4, STK3 (MST2) (Homo sapiens, UniProt Q13188); details: ATP at apparent KM
T4 sequence (Q13188 1-491): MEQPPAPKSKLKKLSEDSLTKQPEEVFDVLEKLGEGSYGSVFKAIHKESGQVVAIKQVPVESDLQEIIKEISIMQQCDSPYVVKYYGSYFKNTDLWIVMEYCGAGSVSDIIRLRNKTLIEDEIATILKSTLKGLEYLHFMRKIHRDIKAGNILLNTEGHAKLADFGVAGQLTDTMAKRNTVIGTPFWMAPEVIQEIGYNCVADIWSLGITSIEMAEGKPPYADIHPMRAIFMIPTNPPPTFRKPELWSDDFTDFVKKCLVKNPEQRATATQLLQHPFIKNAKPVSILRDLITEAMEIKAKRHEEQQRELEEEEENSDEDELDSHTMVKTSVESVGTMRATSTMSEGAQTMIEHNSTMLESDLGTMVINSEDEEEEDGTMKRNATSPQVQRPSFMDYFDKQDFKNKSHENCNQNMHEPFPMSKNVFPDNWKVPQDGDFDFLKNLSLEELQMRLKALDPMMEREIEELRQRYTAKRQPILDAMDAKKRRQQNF
Protocol: as §1, §2, §3, §4, §5, §6

RPS6KA2 (RSK3), sequence (Q15349 whole entry): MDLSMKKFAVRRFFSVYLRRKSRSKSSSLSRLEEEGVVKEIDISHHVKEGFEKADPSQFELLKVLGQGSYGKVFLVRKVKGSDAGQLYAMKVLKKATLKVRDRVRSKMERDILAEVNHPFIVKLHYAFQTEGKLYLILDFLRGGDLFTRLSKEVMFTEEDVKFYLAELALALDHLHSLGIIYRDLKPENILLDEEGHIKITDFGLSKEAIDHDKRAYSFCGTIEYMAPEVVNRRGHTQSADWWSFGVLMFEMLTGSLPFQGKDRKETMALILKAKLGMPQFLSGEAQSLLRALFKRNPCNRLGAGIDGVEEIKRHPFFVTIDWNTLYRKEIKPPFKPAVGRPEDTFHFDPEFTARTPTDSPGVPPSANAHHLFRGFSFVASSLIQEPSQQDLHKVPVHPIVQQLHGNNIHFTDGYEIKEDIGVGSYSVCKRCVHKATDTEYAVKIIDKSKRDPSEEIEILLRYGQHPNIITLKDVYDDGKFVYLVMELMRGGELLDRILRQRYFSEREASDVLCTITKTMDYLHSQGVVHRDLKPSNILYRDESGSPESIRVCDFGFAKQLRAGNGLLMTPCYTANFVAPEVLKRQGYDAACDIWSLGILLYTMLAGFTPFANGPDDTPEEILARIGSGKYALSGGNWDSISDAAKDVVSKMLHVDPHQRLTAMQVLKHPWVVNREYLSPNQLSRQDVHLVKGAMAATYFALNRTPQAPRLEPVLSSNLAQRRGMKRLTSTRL

SMILES	inhibition at 1 µM [2] [%]	inhibition at 1 µM [3] [%]	inhibition at 1 µM [4] [%]	inhibition at 1 µM [5] [%]	inhibition at 1 µM [6] [%]	inhibition at 1 µM [7] [%]	inhibition at 1 µM [8] [%]	inhibition at 1 µM [9] [%]	inhibition at 1 µM [10] [%]	inhibition at 1 µM [11] [%]	inhibition at 1 µM [12] [%]	inhibition at 1 µM [13] [%]	inhibition at 1 µM [14] [%]	inhibition at 1 µM [15] [%]	inhibition at 1 µM [16] [%]	inhibition at 1 µM [17] [%]	inhibition at 1 µM [18] [%]	inhibition at 1 µM [19] [%]	inhibition at 1 µM [20] [%]	inhibition at 1 µM [21] [%]	other results
C=CC(=O)Nc1cccc(C(=O)NC2CCN(Cc3ccc(-c4nc5cc[nH]c(=O)c5cc4-c4ccccc4)cc3)CC2)c1 [30b]	33	30	22	3	21	13	13	22	6	29	6	3	9	-2	3	-6	3	1	-1	-19	inhibition at 1 µM [1]: 76%
C=CC(=O)Nc1ccc2c(c1)n(C1CCN(Cc3ccc(-c4nc5cc[nH]c(=O)c5cc4-c4ccccc4)cc3)CC1)c(=O)n2C [24b]	25	14	12	9	9	8	7	7	5	4	2	0	0	-1	-1	-1	-1	-3	-5	-13	inhibition at 1 µM ([1]; 1 µM, ATP at apparent KM, read-out: % inhibition): 97%
C=CC(=O)Nc1cc(NC(=O)NC2CCN(Cc3ccc(-c4nc5cc[nH]c(=O)c5cc4-c4ccccc4)cc3)CC2)ccc1Cl [compound 27]	31	23	10	12	31	13	11	10	1	61	10	3	6	0	4	3	3	2	-12	-3	inhibition at 1 µM [1]: 80%
